In patent US12509482B2, “3′-ketoglycoside compound for the slow release of a volatile alcohol” (GLYCOSCIENCE, S.L., priority 2020, dated 2025):
Where a name gives a salt, the structure may show the parent alone. One block for each molecule: values may come before it.

Experiments:
Type in all cases: physicochemical
[1] = Example 28: release of methanol from methyl-β-3′-ketoglucuronide methyl ester, 0.1 M deuterated phosphate buffer, 10% D6-DMSO, 32° C.
Method: In this example the rate of release of methanol from methyl (2R,3R,5S,6S)-3,5-dihydroxy-6-methoxy-4-oxotetrahydro-2H-pyran-2-carboxylate (methyl-β-3′-ketoglucuronide methyl ester) in D2O containing 10% D6-DMSO or in 0.1 M deuterated phosphate buffer solutions of differing pH containing 10% D6-DMSO or in D2O was determined.
(§1) 0.1 M of pH 5.8 and 7.4 stock buffered solutions of sodium dihydrogen phosphate and disodium hydrogen phosphate were prepared in deuterated water (D2O).
A stock solution of 20 mg of methyl-β-3′-ketoglucuronide methyl ester in 0.25 mL of D6-DMSO were prepared.
(§2) To two parallel reaction vials, where indicated in the reaction table below, was added 0.05 mL of the glycoside substrate solutions in D6-DMSO and 0.55 mL of low or high pH 0.1M phosphate buffer in D2O and the mixtures incubated by shaking at 32° C. After times indicated in table below, the mixtures where analysed by ^1H-NMR in a 400 MHz instrument.

[2] = Example 20: release of (S)-α-terpineol from (S)-α-terpineol-O-β-D-3′-ketoglucopyranoside, 0.1 M deuterated phosphate buffer, 33% D6-DMSO, 32° C.
Method: In this example the rate of release of (S)-α-terpineol from (2R,3R,5S)-3,5-dihydroxy-2-(hydroxymethyl)-6-((5-(2-hydroxypropan-2-yl)-2-methylcyclohexyl)oxy) tetrahydro-4H-pyran-4-one ((S)-α-terpineol-O-β-D-3′-ketoglucopyranoside) in 0.1 M deuterated phosphate buffer solutions of differing pH containing 33% D6-DMSO was determined.
as §1
A stock solution of 10 mg of (S)-α-terpineol-O-β-D-3′-ketoglucopyranoside in 0.5 mL of D6-DMSO were prepared.
as §2, with “0.20” for “0.05”, “0.40” for “0.55”

[3] = Example 22: competitive release of para-nitrophenol from an approximately equimolar solution of 4-nitrophenyl-O-β-D- and -O-α-D-3′-ketoglucopyranoside, 32° C., 1H NMR integrals
Excerpt: In this example the competitive rate of release of para-nitrophenol from an approximately equimolar solution of (2R,5S,6S)-3,5-dihydroxy-2-(hydroxymethyl)-6-(4-nitrophenoxy)tetrahydro-4H-pyran-4-one (4-nitrophenyl-O-β-D-3′-ketoglucopyranoside) and (2R,5S,6S)-3,5-dihydroxy-2-(hydroxymethyl)-6-(4-nitrophenoxy)tetrahydro-4H-pyran-4-one (4-nitrophenyl-O-α-D-3′-ketoglucopyranoside) in D2O containing 1.5% D6-DMSO or in 0.1 M deuterated phosphate buffer, pH 5.8 containing 1.5% D6-DMSO or in D2O was determined.
A solution containing approximately 2 mg each of 4-nitrophenyl-O-β-D-3′-ketoglucopyranoside and 4-nitrophenyl-O-α-D-3′-ketoglucopyranoside was prepared in 1 mL of D2O containing 3.3% v/v D6-DMSO. To two 0.375 mL portions of the resultant solution was added either D2O (0.5 mL) or 0.1M sodium phosphate buffer, pH 5.8 (0.5 mL) to given reactions 1 and 2 respectively. The resultant mixtures were analysed by ^1H NMR directly following preparation then incubated at 32° C./80 rpm and periodically analysed by ^1H NMR at recorded time points.
The change in the ratio between the integrals of the anomeric protons of each ketoglucoside and between the were sum of the anomeric protons and the anomeric protons of each ketoglucoside with time are shown in Table IX: […]

[4] = Example 13: release of 4-nitrophenol from substrate A (4-nitrophenyl-O-β-D-3′-ketoglucopyranoside) vs substrate B (4-nitrophenyl-O-β-D-glucopyranoside), 0.1 M deuterated phosphate buffer or water, 10% D6-DMSO, room temperature; conditions: for composition by 1H-NMR (aromatic signals): approximately 26 h
Method: In this example, 4-nitrophenyl-O-β-D-3′-ketoglucopyranoside and 4-nitrophenyl-O-beta-D-glucopyranoside were used as model compounds to determine the rate of release of an aromatic alcohol (4-nitrophenol) under different conditions.
Rate of release of 4-nitrophenol from (2R,3R,5S,6S)-3,5-dihydroxy-2-(hydroxymethyl)-6-(4-nitrophenoxy)tetrahydro-4H-pyran-4-one (4-nitrophenyl-O-β-D-3′-ketoglucopyranoside) was determined in comparison to (2R,3S,4S,5R,6S)-2-(hydroxymethyl)-6-(4-nitrophenoxy)tetrahydro-2H-pyran-3,4,5-triol (para-nitrophenyl-O-β-D-glucopyranoside) in 0.1 M deuterated phosphate buffer solutions of differing pH containing 10% D6-DMSO or in water containing 10% D6-DMSO at room temperature.
1 M Stock solutions of sodium dihydrogen phosphate and disodium hydrogen phosphate were prepared in deuterated water (D2O). Stock solutions of 25 mg of 4-nitrophenyl-O-β-D-3′-ketoglucopyranoside (substrate A), 25 mg of 4-nitrophenyl-O-β-D-glucopyranoside (substrate B) in 0.5 mL of D6-DMSO were each prepared and a stock solution of 11 mg of 4-nitrophenol in the same volume of D6-DMSO for visual comparison.
Solutions of pH 4.5, 5.8, 7.4 and 9.5 were prepared by dilution of the appropriate individual or mixture of stock phosphate salt solutions to 0.1 M using a calibrated pH meter.
To ten parallel reaction vials was added 0.05 mL of one of the glycoside substrate stock solutions in D6-DMSO, 0.5 mL of the appropriate deuterated buffer solution or 0.5 mL of water were indicated in Table I below. The reaction vials were allowed to stand at room temperature and the colour of the solutions recorded by visual observation relative to the colour of authentic 4-nitrophenol solutions diluted in the same way, as shown in Table I:
After approximately 26 h, reactions 2 to 5 were all analysed by ^1H-NM R using 128 scans on a 400 MHz instrument.

[5] = Example 29: release of phenol from phenyl-O-β-D-3′-keto-6′-sulphatoglucopyranoside pyridinium salt, 0.1 M deuterated phosphate buffer, 15% D6-DMSO, 32° C.
Method: In this example the rate of release of phenol from ((2R,3R,5S,6S)-3,5-dihydroxy-4-oxo-6-phenoxytetrahydro-2H-pyran-2-yl)methyl hydrogen sulfate pyridinium salt (phenyl-O-β-D-3′-keto-6′-sulphatoglucopyranoside pyridinium salt) in 0.1 M deuterated phosphate buffer solutions of differing pH containing 15% D6-DMSO was determined.
as §1
A stock solution of 20 mg of phenyl-O-β-D-3′-keto-6′-sulphatoglucopyranoside in 0.5 mL of D6-DMSO were prepared.
as §2, with “0.10” for “0.05”, “0.60” for “0.55”

[6] = Example 15: release of carvacrol from carvacrol-O-β-D-3′-ketoglucopyranoside, 0.1 M deuterated phosphate buffer, 20% D6-DMSO, 32° C.
Method: In this example the rate of release of carvacrol from ((2R,3R,5S)-3,5-dihydroxy-2-(hydroxymethyl)-6-(5-isopropyl-2-methylphenoxy)tetrahydro-4H-pyran-4-one (carvacrol-O-β-D-3′-ketoglucopyranoside) in 0.1 M deuterated phosphate buffer solutions of differing pH containing 20% D6-DMSO was determined. 0.1 M of pH 5.8 and 7.4 stock buffered solutions of sodium dihydrogen phosphate and disodium hydrogen phosphate were prepared in deuterated water (D2O).
A stock solution of 15 mg of carvacrol-O-β-D-3′ketoglucopyranoside in 1.0 mL of D6-DMSO were prepared.
as §2, with “was added 0.20 mL of” for “was added 0.05 mL of”, “D6-DMSO and […] of” for “D6-DMSO and 0.55 mL of”, “buffer in D2O or D2O and” for “buffer in D2O and”

[7] = Description: alcohol release from model compounds (III), (IV) and compound (V) in buffer, water and skin washings; conditions: 20 mg/mL mixture; after 3 d

Structure (SMILES): CC1=CC[C@@H](C(C)(C)O[C@@H]2O[C@H](CO)[C@@H](O)C(=O)[C@H]2O)CC1 [(2R,3R,5S,6S)-3,5-dihydroxy-2-(hydroxymethyl)-6-((2-((S)-4-methylcyclohex-3-en-1-yl)propan-2-yl)oxy)tetrahydro-4H-pyran-4-one]
pH dependence of (S)-α-terpineol release (in words) ([2]; 32° C.): only slowly degraded at pH 5.8, but releases (S)-α-terpineol at a significantly higher rate at pH 7.4
% Conversion by 1H-NMR ([2]; pH 5.8, 0 h): 0%
% Conversion by 1H-NMR ([2]; pH 5.8, 3 h): 0%
% Conversion by 1H-NMR ([2]; pH 5.8, 20 h): 0%
% Conversion by 1H-NMR ([2]; pH 5.8, 95 h): 0%
% Conversion by 1H-NMR ([2]; pH 7.4, 0 h): 0%
% Conversion by 1H-NMR ([2]; pH 7.4, 3 h): 5%
% Conversion by 1H-NMR ([2]; pH 7.4, 20 h): 28%
% Conversion by 1H-NMR ([2]; pH 7.4, 95 h): 77%
% Conversion by 1H-NMR ([2]; pH 7.4, column head 167): 85%

Structure (SMILES): O=C1[C@@H](O)[C@H](Oc2ccc([N+](=O)[O-])cc2)O[C@H](CO)[C@H]1O [(2R,5S,6S)-3,5-dihydroxy-2-(hydroxymethyl)-6-(4-nitrophenoxy)tetrahydro-4H-pyran-4-one]
ratio of the sum of aromatic/β-ketoglucoside proton integrals ([3]; Reaction 1, D2O, 0 h): 6.8
ratio of the sum of aromatic/β-ketoglucoside proton integrals ([3]; Reaction 1, D2O, 20 h): 8.3
ratio of the sum of aromatic/β-ketoglucoside proton integrals ([3]; Reaction 1, D2O, 45 h): 8.8
ratio of the sum of aromatic/β-ketoglucoside proton integrals ([3]; Reaction 1, D2O, 143 h): 8.3
ratio of the sum of aromatic/β-ketoglucoside proton integrals ([3]; Reaction 2, 0.1M sodium phosphate buffer, pH 5.8, 0 h): 6.6
ratio of the sum of aromatic/β-ketoglucoside proton integrals ([3]; Reaction 2, 0.1M sodium phosphate buffer, pH 5.8, 20 h): 7.2
ratio of the sum of aromatic/β-ketoglucoside proton integrals ([3]; Reaction 2, 0.1M sodium phosphate buffer, pH 5.8, 45 h): 9.7
ratio of the sum of aromatic/β-ketoglucoside proton integrals ([3]; Reaction 2, 0.1M sodium phosphate buffer, pH 5.8, 143 h): 10.6
composition by 1H-NMR (aromatic signals) ([4]; reaction 2, pH 4.5): only starting material
composition by 1H-NMR (aromatic signals) ([4]; reaction 3, pH 5.8): a mixture to starting material and 4-nitrophenol
composition by 1H-NMR (aromatic signals) ([4]; reaction 4, pH 7.4): almost entirely 4-nitrophenol with a trace of starting material
composition by 1H-NMR (aromatic signals) ([4]; reaction 5, pH 9.5): almost entirely 4-nitrophenol with a trace of starting material
4-nitrophenol release (in words) ([4]; varying solution pH, room temperature, 0.5 mL of aqueous solution): from no release at low pH to the delivery of μg quantities of 4-nitrophenol per minute

Structure (SMILES): O=C1[C@@H](O)[C@H](Oc2ccccc2)O[C@H](COS(=O)(=O)O)[C@H]1O [((2R,3R,5S,6S)-3,5-dihydroxy-4-oxo-6-phenoxytetrahydro-2H-pyran-2-yl)methyl hydrogen sulfate pyridinium salt]
phenol release (in words) ([5]; 32° C.): generates phenol at pH 7.4
% Conversion by 1H-NMR ([5]; Reaction 1, pH 5.8, 0 h): 1%
% Conversion by 1H-NMR ([5]; Reaction 1, pH 5.8, 5 h): 2%
% Conversion by 1H-NMR ([5]; Reaction 1, pH 5.8, 20 h): 2%
% Conversion by 1H-NMR ([5]; Reaction 1, pH 5.8, 100 h): 2%
% Conversion by 1H-NMR ([5]; Reaction 2 (0.60 mL of pH 5.8 buffer), 0 h): 4%
% Conversion by 1H-NMR ([5]; Reaction 2 (0.60 mL of pH 5.8 buffer), 5 h): 15%
% Conversion by 1H-NMR ([5]; Reaction 2 (0.60 mL of pH 5.8 buffer), 20 h): 38%
% Conversion by 1H-NMR ([5]; Reaction 2 (0.60 mL of pH 5.8 buffer), 100 h): 84%

Structure (SMILES): Cc1ccc(C(C)C)cc1O[C@@H]1O[C@H](CO)[C@@H](O)C(=O)[C@H]1O [carvacrol-O-β-D-3′-ketoglucopyranoside, (2R,3R,5S,6S)-3,5-dihydroxy-2-(hydroxymethyl)-6-(5-isopropyl-2-methylphenoxy)tetrahydro-4H-pyran-4-one]
pH dependence of carvacrol release (in words) ([6]; 32° C.): only slowly degraded at pH 5.8, but releases carvacrol at a significantly higher rate at pH 7.4
% Conversion by 1H-NMR ([6]; pH 5.8, 1 h): 2%
% Conversion by 1H-NMR ([6]; pH 5.8, 5 h): <5%
% Conversion by 1H-NMR ([6]; pH 5.8, 23 h): <5%
% Conversion by 1H-NMR ([6]; pH 5.8, 69 h): <5%
% Conversion by 1H-NMR ([6]; pH 7.4, 1 h): 8%
% Conversion by 1H-NMR ([6]; pH 7.4, 5 h): 14%
% Conversion by 1H-NMR ([6]; pH 7.4, 23 h): 83%
% Conversion by 1H-NMR ([6]; pH 7.4, 69 h): 100%

The next lines start with results.

% Conversion by 1H-NMR ([1]; pH 5.8, 0 h): 0%
% Conversion by 1H-NMR ([1]; pH 5.8, 5 h): 2%
% Conversion by 1H-NMR ([1]; pH 5.8, 20 h): 7%
% Conversion by 1H-NMR ([1]; pH 5.8, 163 h (printed under the 72 h column)): 23%
% Conversion by 1H-NMR ([1]; pH 7.4, 0 h): 0%
% Conversion by 1H-NMR ([1]; pH 7.4, 5 h): 15%
% Conversion by 1H-NMR ([1]; pH 7.4, 20 h): 38%
% Conversion by 1H-NMR ([1]; pH 7.4, 72 h): 100%
Structure (SMILES): COC(=O)[C@H]1OC(OC)[C@H](O)C(=O)[C@@H]1O (stereo in doubt) [methyl-β-3′-ketoglucuronide methyl ester, methyl (2S,3R,5S,6S)-3,5-dihydroxy-6-methoxy-4-oxotetrahydro-2H-pyran-2-carboxylate]
methanol release (in words) ([1]; 32° C.): generates methanol at both pH 5.8 and pH 7.4

aroma of geraniol on opening the stoppered reaction vessel [7]: not present
Structure (SMILES): CC(C)=CCC/C(C)=C/CO[C@@H]1O[C@H](CO)[C@@H](O)[C@H](O)[C@H]1O [geranyl-O-β-D-glucopyranoside]
